According to patent US9926506B2, “Tetrarylmethane ethers as fuel markers” (Dow Global Technologies LLC, priority 2014, dated 2018):

Row | Compound | melting point
1 | CCCCCCCOc1ccc(C(c2ccccc2)(c2ccccc2)c2ccc(OCCCCCCC)cc2)cc1 [BHeptTPM, Bis(4-(heptyloxy)phenyl)diphenylmethane] | 103 to 105 °C
2 | CCCCCCOc1ccc(C(c2ccccc2)(c2ccccc2)c2ccc(OCCCCCC)cc2)cc1 [BHexTPM] | 120 to 122 °C
3 | CCCCCCCCOc1ccc(C(c2ccccc2)(c2ccccc2)c2ccc(OCCCCCCCC)cc2)cc1 [BOctTPM, Bis(4-(octyloxy)phenyl)diphenylmethane] | 84.5 to 86.5 °C
4 | CCCCCOc1ccc(C(c2ccccc2)(c2ccccc2)c2ccc(OCCCCC)cc2)cc1 [BPentTPM, Bis(4-(pentyloxy)phenyl)diphenylmethane] | 110 to 113 °C
